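Grown in 96-well plates, cells were treated for 48 hours with each compound at five concentrations. Insufficient inhibition: endpoint recorded as highest concentration tested. TGI marks complete inhibition of growth.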
Legend:
Test in all cases: NCI-60 cell line screen, 48 h
RPMI-8226 leukemia = test system: RPMI-8226 leukemia
LXFL 529 NSCLC = test system: LXFL 529 NSCLC
KM12 colon = test system: KM12 colon
SN12C renal = test system: SN12C renal
SK-MEL-28 melanoma = test system: SK-MEL-28 melanoma
HCC-2998 colon = test system: HCC-2998 colon
HOP-62 NSCLC = test system: HOP-62 NSCLC
MOLT-4 leukemia = test system: MOLT-4 leukemia
SNB-78 CNS = test system: SNB-78 CNS
SK-MEL-5 melanoma = test system: SK-MEL-5 melanoma
CCRF-CEM leukemia = test system: CCRF-CEM leukemia
M14 melanoma = test system: M14 melanoma
SK-MEL-2 melanoma = test system: SK-MEL-2 melanoma
HOP-18 NSCLC = test system: HOP-18 NSCLC
HL-60(TB) leukemia = test system: HL-60(TB) leukemia
SF-268 CNS = test system: SF-268 CNS
HCT-15 colon = test system: HCT-15 colon
SNB-19 CNS = test system: SNB-19 CNS
COLO 205 colon = test system: COLO 205 colon
UO-31 renal = test system: UO-31 renal
SR leukemia = test system: SR leukemia
DLD-1 colon = test system: DLD-1 colon
DMS 273 small cell lung = test system: DMS 273 small cell lung
NCI-H226 lung = test system: NCI-H226 lung
HT29 colon = test system: HT29 colon
KM20L2 colon = test system: KM20L2 colon
U251 CNS = test system: U251 CNS
UACC-257 melanoma = test system: UACC-257 melanoma
M19-MEL melanoma = test system: M19-MEL melanoma
EKVX NSCLC = test system: EKVX NSCLC
SF-295 CNS = test system: SF-295 CNS
OVCAR-8 ovarian = test system: OVCAR-8 ovarian
786-0 renal = test system: 786-0 renal
IGROV1 ovarian = test system: IGROV1 ovarian
XF 498 CNS = test system: XF 498 CNS
NCI-H23 lung = test system: NCI-H23 lung
NCI-H460 lung = test system: NCI-H460 lung
LOX IMVI melanoma = test system: LOX IMVI melanoma
UACC-62 melanoma = test system: UACC-62 melanoma
OVCAR-3 ovarian = test system: OVCAR-3 ovarian
SW-620 colon = test system: SW-620 colon
MALME-3M melanoma = test system: MALME-3M melanoma
OVCAR-5 ovarian = test system: OVCAR-5 ovarian
DMS 114 small cell lung = test system: DMS 114 small cell lung
K-562 leukemia = test system: K-562 leukemia
SF-539 CNS = test system: SF-539 CNS
TK-10 renal = test system: TK-10 renal
SK-OV-3 ovarian = test system: SK-OV-3 ovarian
NCI-H522 lung = test system: NCI-H522 lung
SNB-75 CNS = test system: SNB-75 CNS
HOP-92 NSCLC = test system: HOP-92 NSCLC
ACHN renal = test system: ACHN renal

## COc1cc2c(cc1OC)C(C#N)N(C(=O)c1ccccc1)C=C2OC(=O)c1ccccc1 (configuration not stated)
RPMI-8226 leukemia
  TGI: > 100 µM
LXFL 529 NSCLC
  TGI: 42.5 µM
KM12 colon
  TGI: > 100 µM
SN12C renal
  TGI: > 100 µM
SK-MEL-28 melanoma
  TGI: 58.1 µM
HCC-2998 colon
  TGI: > 100 µM
HOP-62 NSCLC
  TGI: 35.2 µM
MOLT-4 leukemia
  TGI: > 100 µM
SNB-78 CNS
  TGI: 76.6 µM
SK-MEL-5 melanoma
  TGI: 44.9 µM
CCRF-CEM leukemia
  TGI: > 100 µM
M14 melanoma
  TGI: > 100 µM
SK-MEL-2 melanoma
  TGI: 54.7 µM
HOP-18 NSCLC
  TGI: 46.6 µM
HL-60(TB) leukemia
  TGI: > 100 µM
SF-268 CNS
  TGI: 86 µM
HCT-15 colon
  TGI: > 100 µM
SNB-19 CNS
  TGI: 67.5 µM
COLO 205 colon
  TGI: > 100 µM
UO-31 renal
  TGI: 39.3 µM
SR leukemia
  TGI: > 100 µM
DLD-1 colon
  TGI: > 100 µM
DMS 273 small cell lung
  TGI: 45.4 µM
NCI-H226 lung
  TGI: 51.4 µM
HT29 colon
  TGI: > 100 µM
KM20L2 colon
  TGI: > 100 µM
U251 CNS
  TGI: 74.7 µM
UACC-257 melanoma
  TGI: 53 µM
M19-MEL melanoma
  TGI: 90.5 µM
EKVX NSCLC
  TGI: 71.9 µM
SF-295 CNS
  TGI: 45.4 µM
OVCAR-8 ovarian
  TGI: 71.8 µM
786-0 renal
  TGI: 34.7 µM
IGROV1 ovarian
  TGI: 50.2 µM
XF 498 CNS
  TGI: 47.7 µM
NCI-H23 lung
  TGI: > 100 µM
NCI-H460 lung
  TGI: > 100 µM
LOX IMVI melanoma
  TGI: > 100 µM
UACC-62 melanoma
  TGI: 45 µM
OVCAR-3 ovarian
  TGI: 47.4 µM
SW-620 colon
  TGI: > 100 µM
MALME-3M melanoma
  TGI: 50.2 µM
OVCAR-5 ovarian
  TGI: > 100 µM
DMS 114 small cell lung
  TGI: 89.2 µM
K-562 leukemia
  TGI: > 100 µM
SF-539 CNS
  TGI: 39 µM
TK-10 renal
  TGI: 50.5 µM
SK-OV-3 ovarian
  TGI: > 100 µM
NCI-H522 lung
  TGI: 39.2 µM
SNB-75 CNS
  TGI: 40 µM
HOP-92 NSCLC
  TGI: 77 µM
ACHN renal
  TGI: 43.6 µM

From PubChem BioAssay (NCI)
